Our source for the IC50 values is patent US20090099213A1, “Ortho-Condensed Pyridine and Pyrimidine Derivatives (e.g., Purines) as Protein Kinases Inhibitors” (Astex Therapeutics Limited, priority 2004, published 2009).

Where two headings read alike, the source gives them in different places.

The target of assay [1] is T1, PKB-PIF (Homo sapiens, UniProt P31751).
T1 construct: fusion partner; made in house
Nature of the assay: Measurement of PKB kinase inhibitory activity (IC50), radiometric filter plate assay. Type of assay: biochemical. An excerpt:
The inhibition of protein kinase B (PKB) activity by compounds can be determined essentially as described by Andjelkovic et al. (Mol. Cell. Biol. 19, 5061-5072 (1999)) but using a fusion protein described as PKB-PIF and described in full by Yang et al (Nature Structural Biology 9, 940-944 (2002)). The protein is purified and activated with PDK1 as described by Yang et al. The peptide AKTide-2T (H-A-R-K-R-E-R-T-Y-S-F-G-H-H-A-OH) obtained from Calbiochem (#123900) is used as a substrate. A final concentration of 0.6 nM enzyme is used in a buffer that includes 20 mM MOPS pH 7.2, 30 μM ATP/γ^33P-ATP and 25 μM substrate. Compounds are added in DMSO solution to a final DMSO concentration of 2.5%. The reaction is allowed to proceed for 20 minutes before addition of excess orthophosphoric acid to quench activity. The reaction mixture is transferred to a phosphocellulose filter plate where the peptide binds and the unused ATP is washed away. After washing, scintillant is added and the incorporated activity measured by scintillation counting.
The % inhibition of the PKB activity is calculated and plotted in order to determine the concentration of test compound required to inhibit 50% of the PKB activity (IC50).

Assay [2] addresses T2, PKA catalytic domain (Homo sapiens, UniProt P17612).
T2 construct: using the PKA catalytic domain from Upstate Biotechnology (#14-440); purchased Upstate Biotechnology 14-440
Nature of the assay: Measurement of PKA kinase inhibitory activity (IC50), radiometric filter plate assay. It counts as biochemical. The settings on record: 1 nM enzyme, 40 μM ATP, 20 minutes. As for the experimental part:
Compounds of the invention can be tested for PK inhibitory activity using the PKA catalytic domain from Upstate Biotechnology (#14-440) and the 9 residue PKA specific peptide ([…]), also from Upstate Biotechnology (#12-257), as the substrate. A final concentration of 1 nM enzyme is used in a buffer that includes 20 mM MOPS pH 7.2, 40 μM ATP/γ^33P-ATP and […] substrate. Compounds are added in dimethylsulphoxide (DMSO) solution to a final DMSO concentration of 2.5%. The reaction is allowed to proceed for 20 minutes before addition of excess orthophosphoric acid to quench activity. Unincorporated γ^33P-ATP is then separated from phosphorylated proteins on a Millipore MAPH filter plate. The plates are washed, scintillant is added and the plates are then subjected to counting on a Packard Topcount.
The % inhibition of the PKA activity is calculated and plotted in order to determine the concentration of test compound required to inhibit 50% of the PKA activity (IC50).

Where [3] appears, read: 0.6 nM enzyme, 30 μM ATP, 25 μM AKTide-2T substrate, 20 minutes, read-out: IC50 (PKB activity).

T1 sequence (P31751 with tags, fused parts or gaps limits assumed): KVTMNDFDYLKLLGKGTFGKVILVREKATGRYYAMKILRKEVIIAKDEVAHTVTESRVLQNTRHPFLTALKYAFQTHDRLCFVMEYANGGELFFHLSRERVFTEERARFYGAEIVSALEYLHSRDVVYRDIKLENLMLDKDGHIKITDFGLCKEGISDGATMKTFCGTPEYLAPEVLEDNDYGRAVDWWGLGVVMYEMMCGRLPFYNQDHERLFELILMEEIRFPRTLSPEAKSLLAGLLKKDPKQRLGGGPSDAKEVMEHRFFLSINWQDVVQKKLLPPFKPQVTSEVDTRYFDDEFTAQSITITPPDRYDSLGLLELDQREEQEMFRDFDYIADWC

`CNCc1ccc(-c2ncnc3[nH]cnc23)cc1` [Example 6, Methyl-(4-(9H-purin-6-yl)benzyl)amine]: the IC50 in assay [1] (setting [3]) and in assay [2] was under 10 µM each time.

For the compound `NCC1CCCN(c2ncnc3[nH]ccc23)C1` (centres unmarked) [Example 31, C-[1-(7H-Pyrrolo[2,3-d]pyrimidin-4-yl)piperidin-3-yl]methylamine], the IC50 in assay [1] (setting [3]) and in assay [2] was under 10 µM in each case.

Take `Clc1ccc(C2(c3ccc(-c4ncnc5[nH]ccc45)cc3)CCNCC2)cc1` [Example 23, 4-{4-[4-(4-Chloro-phenyl)-piperidin-4-yl]-phenyl}-7H-pyrrolo[2,3-d]pyrimidine]: the IC50 in assay [1] (setting [3]) and in assay [2] was under 10 µM in each case.

Turning to `CNCC(c1ccc(Cl)cc1)c1ccc(-c2ccnc3[nH]ccc23)cc1` (centres unmarked) [Example 30, {2-(4-Chloro-phenyl)-2-[4-(1H-pyrrolo[2,3-b]pyridin-4-yl)-phenyl]-ethyl}-methyl-amine], the half-maximal inhibitory concentration (IC50) in assay [1] (setting [3]) and in assay [2] was under 10 µM each time.

`NCC1CCN(c2ncnc3[nH]ccc23)CC1` [Example 18, C-[1-(7H-Pyrrolo[2,3-d]pyrimidin-4-yl)-piperidin-4-yl]-methylamine]: the IC50 in assay [1] (setting [3]) and in assay [2] was under 10 µM in each case.

For the compound `Clc1ccc(C2(c3ccc(-c4ccnc5[nH]ccc45)cc3)CCNCC2)cc1` [Example 27, 4-{4-[4-(4-Chloro-phenyl)-piperidin-4-yl]-phenyl}-1H-pyrrolo[2,3-b]pyridine], the IC50 in assay [1] (setting [3]) is under 10 µM.

Take `NC(c1ccccc1)C1CCN(c2ncnc3[nH]c(=O)[nH]c23)CC1` (centres unmarked) [Example 13, 6-[4-(Aminophenylmethyl)piperidin-1-yl]-7,9-dihydropurin-8-one]: in assay [1] (setting [3]), the half-inhibitory concentration (IC50) is under 10 µM.

Consider `NC(c1ccc(Cl)cc1)C1CCN(c2ncnc3[nH]c(=O)[nH]c23)CC1` (centres unmarked) [Example 14, 6-[4-(Amino(4-chlorophenyl)methyl)piperidin-1-yl]-7,9-dihydropurin-8-one], for which the IC50 in assay [1] (setting [3]) and in assay [2] was under 10 µM in each case.

Consider `NC(c1ccc(Cl)cc1)c1ccc(-c2ncnc3[nH]cnc23)cc1` (centres unmarked) [Example 28, C-(4-Chloro-phenyl)-C-[4-(9H-purin-6-yl)-phenyl]-methylamine], for which, in assay [1] (setting [3]), the IC50 is under 10 µM.

`CNCCCNc1ncnc2[nH]cnc12` [Example 1, N-Methyl-N′-(9H-purin-6-yl)-propane-1,3-diamine]: in assay [1] (setting [3]), the half-inhibitory concentration (IC50) was under 10 µM.

As for `NC(c1ccc(Cl)cc1)C1CCN(c2ncnc3[nH]ccc23)CC1` (centres unmarked) [Example 25, C-4-Chlorophenyl-C-[1-(7H-pyrrolo[2,3-d]pyrimidin-4-yl)-piperidin-4-yl]-methylamine], the IC50 in assay [1] (setting [3]) and in assay [2] was under 10 µM throughout.

`NC(Cc1ccccc1)C1CCN(c2ncnc3[nH]c(=O)[nH]c23)CC1` (centres unmarked) [Example 21, 6-[4-(1-Amino-2-phenylethyl)piperidin-1-yl]-7,9-dihydropurin-8-one]: in assay [1] (setting [3]), the IC50 was under 50 µM.

For the compound `NCC1CCN(c2ncnc3[nH]cnc23)CC1` [Example 12, C-[1-(9H-Purin-6-yl)piperidin-4-yl]methylamine], the IC50 in assay [1] (setting [3]) and in assay [2] was under 10 µM in each case.

Regarding `NCCc1ccc(-c2ncnc3[nH]cnc23)cc1` [Example 9, 2-(4-(9H-Purin-6-yl)phenyl)ethylamine], in assay [1] (setting [3]), the half-maximal inhibitory concentration (IC50) is under 50 µM.

Consider `NC(c1ccc(Cl)cc1)C1CCN(c2ccnc3[nH]ccc23)CC1` (centres unmarked) [Example 29, C-(4-Chlorophenyl)-C-[1-(1H-pyrrolo[2,3-b]pyridin-4-yl)piperidin-4-yl]methylamine], for which the IC50 in assay [1] (setting [3]) and in assay [2] was under 10 µM each time.

Regarding `NC(c1ccc(Cl)cc1)C1CCN(c2ccnc3[nH]ccc23)CC1` (single isomer, unassigned) [Example 32, C-(4-Chlorophenyl)-C-[1-(1H-pyrrolo[2,3-b]pyridin-4-yl)piperidin-4-yl]methylamine], the IC50 in assay [1] (setting [3]) was under 10 µM.

The compound `NCCc1cccc(-c2ncnc3[nH]cnc23)c1` [Example 10, 2-(3-(9H-purin-6-yl)phenyl)ethylamine] yielded an IC50 in assay [1] of under 10 µM.

Regarding `NC(c1ccccc1)C1CCN(c2ncnc3[nH]ccc23)CC1` (centres unmarked) [Example 24, C-Phenyl-C-[1-(7H-pyrrolo[2,3-d]pyrimidin-4-yl)-piperidin-4-yl]-methylamine], the IC50 in assay [1] (setting [3]) is under 10 µM.

As to `NC(c1ccc(Cl)cc1)C1CCN(c2ncnc3[nH]cnc23)CC1` (centres unmarked) [Example 26, C-(4-Chloro-phenyl)-C-[1-(9H-purin-6-yl)-piperidin-4-yl]-methylamine], the half-inhibitory concentration (IC50) in assay [1] (setting [3]) was under 10 µM.

Take `NC(CCNc1ncnc2[nH]c(=O)[nH]c12)c1ccc(F)cc1` (centres unmarked) [Example 4, 6-[3-Amino-3-(4-fluorophenyl)propylamino]-7,9-dihydropurin-8-one]: the IC50 is under 10 µM in assay [1] (setting [3]) and under 150 µM in assay [2].

`NCCCOc1cccc(-c2ncnc3[nH]cnc23)c1` [Example 16, 3-[3-(9H-Purin-6-yl)-phenoxy]-propylamine]: in assay [1] (setting [3]), the IC50 was under 10 µM.

For `CNCc1cccc(-c2ncnc3[nH]cnc23)c1` [Example 7, Methyl-(3-(9H-purin-6-yl)benzyl)amine], the IC50 in assay [1] (setting [3]) and in assay [2] was under 10 µM each time.

For `NCC1CCN(c2ncnc3[nH]c(=O)[nH]c23)CC1` [Example 15, 6-(4-Aminomethylpiperidin-1-yl)-7,9-dihydropurin-8-one], the IC50 in assay [1] (setting [3]) is under 10 µM.

Regarding `NC(CCNc1ncnc2[nH]cnc12)c1ccc(Cl)cc1` (centres unmarked) [Example 5, 1-(4-Chlorophenyl)-N^3-(9H-purin-6-yl)propane-1,3-diamine], the concentration for half-maximal inhibition (IC50) in assay [1] (setting [3]) and in assay [2] was under 10 µM in each case.

For the compound `NC(CCNc1ncnc2[nH]cnc12)c1ccc(F)cc1` (centres unmarked) [Example 3, 1-(4-Fluorophenyl)-N^3-(9H-purin-6-yl)propane-1,3-diamine], the IC50 in assay [1] (setting [3]) was under 10 µM.

For the compound `NC(c1ccccc1)c1ccc(-c2ncnc3[nH]cnc23)cc1` (centres unmarked) [Example 19, C-Phenyl-C-[4-(9H-purin-6-yl)-phenyl]-methylamine], in assay [1] (setting [3]), the IC50 was under 10 µM.

With `Clc1ccc(C2(c3ccc(-c4ncnc5[nH]cnc45)cc3)CCNCC2)cc1` [Example 22, 6-(4-[4-(4-Chlorophenyl)-piperidin-4-yl)-phenyl)-9H-purine], the IC50 in assay [1] (setting [3]) and in assay [2] was under 10 µM in each case.

As for `NC(=O)C1CCN(c2ncnc3[nH]cnc23)CC1` [Example 11, 1-(9H-Purin-6-yl)piperidine-4-carboxylic Acid Amide], the IC50 in assay [1] (setting [3]) was under 50 µM.

As to `NCC1CCN(c2ncnc3[nH]ncc23)CC1` [Example 17, C-[1-(1H-Pyrazolo[3,4-d]pyrimidin-4-yl)-piperidin-4-yl]-methylamine], the IC50 in assay [1] (setting [3]) and in assay [2] was under 10 µM throughout.

On to `N#CCc1ccc(-c2ncnc3[nH]cnc23)cc1` [Example 8, (4-(9H-purin-6-yl)phenyl)acetonitrile], for which the IC50 in assay [1] (setting [3]) was under 50 µM.

Regarding `NC(Cc1ccccc1)c1ccc(-c2ncnc3[nH]cnc23)cc1` (centres unmarked) [Example 20, 2-Phenyl-1-[4-(9H-purin-6-yl)-phenyl]-ethylamine], the IC50 in assay [1] (setting [3]) and in assay [2] was under 10 µM each time.

As for `CNCCCNc1ncnc2[nH]c(=O)[nH]c12` [Example 2, 6-(3-Methylamino-propylamino)-7,9-dihydro-purin-8-one], the IC50 in assay [1] (setting [3]) is under 10 µM.

As a reminder, the IC50 is the concentration that gives 50% inhibition.
